According to patent US20140288052A1, “SUBSTITUTED BICYCLIC AZA-HETEROCYCLES AND ANALOGUES AS SIRTUIN MODULATORS” (GlaxoSmithKline, LLC, priority 2011, published 2014):

Legend:
SIRT1 [1] = target: T1, SIRT1 (Homo sapiens, UniProt Q96EB6); assay: Trp mass spectrometry assay of SIRT1 deacetylase activation; type: biochemical; conditions: Trp peptide substrate; for TRP EC1.5 (μM): concentration that results in 150% activation of SIRT1; for TRP % Fold Act: percent maximum fold activation relative to control (100%)
T1 sequence (Q96EB6 1-747): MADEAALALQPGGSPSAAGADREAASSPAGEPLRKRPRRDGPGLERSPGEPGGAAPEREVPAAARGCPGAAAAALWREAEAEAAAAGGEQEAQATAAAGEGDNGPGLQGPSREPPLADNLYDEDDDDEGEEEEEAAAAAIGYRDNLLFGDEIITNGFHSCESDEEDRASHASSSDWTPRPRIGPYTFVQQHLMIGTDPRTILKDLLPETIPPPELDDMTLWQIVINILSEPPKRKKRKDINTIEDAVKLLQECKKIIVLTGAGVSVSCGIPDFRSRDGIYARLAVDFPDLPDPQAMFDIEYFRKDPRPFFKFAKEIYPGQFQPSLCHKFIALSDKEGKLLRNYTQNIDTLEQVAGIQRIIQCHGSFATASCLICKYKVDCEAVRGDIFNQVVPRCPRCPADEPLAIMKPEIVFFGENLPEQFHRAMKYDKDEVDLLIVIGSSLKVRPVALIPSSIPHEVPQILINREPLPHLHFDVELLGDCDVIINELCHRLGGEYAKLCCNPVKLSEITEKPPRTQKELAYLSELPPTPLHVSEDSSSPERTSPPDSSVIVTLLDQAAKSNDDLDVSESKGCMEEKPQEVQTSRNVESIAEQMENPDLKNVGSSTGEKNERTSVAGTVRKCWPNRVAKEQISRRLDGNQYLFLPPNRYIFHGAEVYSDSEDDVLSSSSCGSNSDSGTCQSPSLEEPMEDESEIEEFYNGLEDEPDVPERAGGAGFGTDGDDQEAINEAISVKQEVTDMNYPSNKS
Description: (§1) Mass spectrometry based assays were used to identify modulators of SIRT1 activity. The TAMRA based assay utilized a peptide having 20 amino acid residues as follows: Ac-EE-K(biotin)-GQSTSSHSK(Ac)NleSTEG-K(5TMR)-EE-NH2 (SEQ ID NO: 1), wherein K(Ac) is an acetylated lysine residue and Nle is a norleucine. The peptide was labeled with the fluorophore 5TMR (excitation 540 nm/emission 580 nm) at the C-terminus. The sequence of the peptide substrate was based on p53 with several modifications. In addition, the methionine residue naturally present in the sequence was replaced with the norleucine because the methionine may be susceptible to oxidation during synthesis and purification. The Trp based assay utilized a peptide having an amino acid residues as follows: Ac-R-H-K-K(Ac)-W-NH2 (SEQ ID NO: 2).
The Trp mass spectrometry assay was conducted as follows. 0.5 μM peptide substrate and 120 μM βNAD^+ were incubated with 10 nM SIRT1 for 25 minutes at 25° C. in a reaction buffer (50 mM HEPES pH 7.5, […], 1 mM DTT, 0.05% BSA). The SIRT1 protein was obtained by cloning the SirT1 gene into a T7-promoter containing vector, which was then expressed in BL21(DE3) bacterial cells and purified as described in further detail below. Test compound was added at varying concentrations to this reaction mixture and the resulting reactions were monitored. After the 25 minute incubation with SIRT1, 10 μL of 10% formic acid was added to stop the reaction. The resulting reactions were sealed and frozen for later mass spec analysis. The relative SIRT1 activity was then determined by measuring the amount of O-acetyl-ADP-ribose (OAADPR) formed (or, alternatively, the amount of deacetylated Trp peptide generated) by the NAD-dependent sirtuin deacetylation reaction in the presence of varying concentrations of the test compound versus control reactions lacking the test compound. The degree to which the test agent activated deacetylation by SIRT1 was expressed as EC1.5 (i.e., the concentration of compound required to increase SIRT1 activity by 50% over the control lacking test compound), and Percent Maximum Activation (i.e., the maximum activity relative to control (100%) obtained for the test compound).
(§2) A control for inhibition of sirtuin activity was conducted by adding 1 μL of 500 mM nicotinamide as a negative control at the start of the reaction (e.g., permits determination of maximum sirtuin inhibition). A control for activation of sirtuin activity was conducted using 10 nM of sirtuin protein, with 1 μL of DMSO in place of compound, to determine the amount of deacetylation of the substrate at a given time point within the linear range of the assay. This time point was the same as that used for test compounds and, within the linear range, the endpoint represents a change in velocity. For the above assay, SIRT1 protein was expressed and purified as follows. The SirT1 gene was cloned into a T7-promoter containing vector and transformed into BL21(DE3). The protein was expressed by induction with 1 mM IPTG as an N-terminal His-tag fusion protein at 18° C. overnight and harvested at 30,000×g. Cells were lysed with lysozyme in lysis buffer (50 mM Tris-HCl, 2 mM Tris[2-carboxyethyl] phosphine (TCEP), 10 μM ZnCl2, 200 mM NaCl) and further treated with sonication for 10 min for complete lysis. The protein was purified over a Ni-NTA column (Amersham) and fractions containing pure protein were pooled, concentrated and run over a sizing column (Sephadex S200 26/60 global). The peak containing soluble protein was collected and run on an Ion-exchange column (MonoQ). Gradient elution (200 mM-500 mM NaCl) yielded pure protein. This protein was concentrated and dialyzed against dialysis buffer (20 mM Tris-HCl, 2 mM TCEP) overnight. The protein was aliquoted and frozen at −80° C. until further use.
Sirtuin-modulating compounds of Formula (I) that activated SIRT1 were identified using the assay described above and are shown below in Table 1. […]

SIRT1 [2] = target: T1, SIRT1; assay: TAMRA based mass spectrometry assay of SIRT1 deacetylase activation; type: biochemical; conditions: TAMRA peptide substrate; for TAMRA EC1.5 (μM): concentration that results in 150% activation of SIRT1; for TAMRA % Fold Act: percent maximum fold activation relative to control (100%)
Description: as §1
The TAMRA based mass spectrometry assay was conducted as follows: 0.5 μM peptide substrate and 120 μM βNAD^+ was incubated with 10 nM SIRT1 for 25 minutes at 25° C. in a reaction buffer (50 mM Tris-acetate pH 8, 137 mM NaCl, 2.7 mM KCl, 1 mM MgCl2, 5 mM DTT, 0.05% BSA). The SIRT1 protein was obtained by cloning the SirT1 gene into a T7-promoter containing vector, which was then transformed and expressed in BL21(DE3) bacterial cells. Test compound was added at varying concentrations to this reaction mixture and the resulting reactions were monitored. After the 25 minute incubation with SIRT1, 10 μL of 10% formic acid was added to stop the reaction. The resulting reactions were sealed and frozen for later mass spec analysis. Determination of the amount of deacetylated substrate peptide formed (or, alternatively, the amount of O-acetyl-ADP-ribose (OAADPR) generated) by the sirtuin-mediated NAD-dependent deacetylation reaction allowed for the precise measurement of relative SIRT1 activity in the presence of varying concentrations of the test compound versus control reactions lacking the test compound.
as §2
Sirtuin-modulating compounds of Formula (I) that activated SIRT1 were identified using the assay described above and are shown below in Table 1. The EC1.5 values represent the concentration of test compounds that result in 150% activation of SIRT1. The EC1.5 values for the activating compounds of Formula (I) are represented by A (EC1.5<1 μM), B (EC1.5 1−25 μM), C (EC1.5>25 μM). […]

Row | Compound | TRP EC1.5 (μM) (SIRT1 [1]) | TRP % Fold Act (SIRT1 [1]) | TAMRA EC1.5 (μM) (SIRT1 [2]) | TAMRA % Fold Act (SIRT1 [2])
1 | O=C(Nc1ccccn1)c1cc(N2CCOCC2)nn2cc(-c3cccc(Cl)c3)nc12 [Compound 32] | C (EC1.5>25 μM) | B (Fold Activation<350%) | C (EC1.5>25 μM) | B (Fold Activation<350%)
2 | O=C(Nc1cnccn1)c1ccnc2cc(-c3ccccc3C(F)(F)F)nn12 [Compound 99] | C (EC1.5>25 μM) | B (Fold Activation<350%) | C (EC1.5>25 μM) | B (Fold Activation<350%)
3 | O=C(Nc1nccs1)c1ccnn2cc(-c3ccccc3C(F)(F)F)nc12 [Compound 13] | A (EC1.5<1 μM) | B (Fold Activation<350%) | A (EC1.5<1 μM) | B (Fold Activation<350%)
4 | O=C(Nc1ccnc2cc(-c3cccc(C(F)(F)F)c3)nn12)c1ccncn1 [Compound 97] | C (EC1.5>25 μM) | B (Fold Activation<350%) | C (EC1.5>25 μM) | B (Fold Activation<350%)
5 | O=C(Nc1ccnc2cc(-c3ccccc3C(F)(F)F)nn12)c1cscn1 [Compound 55] | C (EC1.5>25 μM) | B (Fold Activation<350%) | B (EC1.5 1−25 μM) | A (Fold activation≧350%)
6 | O=C(Nc1nccs1)c1ccnn2cc(-c3cccc(C(F)(F)F)c3)nc12 [Compound 17] | C (EC1.5>25 μM) | B (Fold Activation<350%) | C (EC1.5>25 μM) | B (Fold Activation<350%)
7 | O=C(Nc1cccnc1)c1cc(N2CCOCC2)nn2cc(-c3ccccc3F)nc12 [Compound 40] | C (EC1.5>25 μM) | B (Fold Activation<350%) | C (EC1.5>25 μM) | B (Fold Activation<350%)
8 | O=C(Nc1nccs1)c1cc(N2CCOCC2)nn2cc(-c3cccc(C(F)(F)F)c3)nc12 [Compound 47] | C (EC1.5>25 μM) | B (Fold Activation<350%) | C (EC1.5>25 μM) | B (Fold Activation<350%)
9 | O=C(Nc1ccnc2cc(-c3cccc(C(F)(F)F)c3)nn12)c1cccc(OCC(O)CO)n1 (stereo not drawn) [Compound 74] | B (EC1.5 1−25 μM) | B (Fold Activation<350%) | B (EC1.5 1−25 μM) | B (Fold Activation<350%)
10 | O=C(Nc1ccccn1)c1ccnc2cc(-c3ccccc3C(F)(F)F)nn12 [Compound 75] | B (EC1.5 1−25 μM) | B (Fold Activation<350%) | B (EC1.5 1−25 μM) | A (Fold activation≧350%)
11 | O=C(Nc1ccncn1)c1ccnc2cc(-c3cccc(C(F)(F)F)c3)nn12 [Compound 92] | C (EC1.5>25 μM) | B (Fold Activation<350%) | C (EC1.5>25 μM) | B (Fold Activation<350%)
12 | Cn1cnc(C(=O)Nc2ccnc3cc(-c4cccc(C(F)(F)F)c4)nn23)c1 [Compound 96] | C (EC1.5>25 μM) | B (Fold Activation<350%) | B (EC1.5 1−25 μM) | B (Fold Activation<350%)
13 | O=C(Nc1ccnc2cc(-c3ccccc3C(F)(F)F)nn12)c1cccc(N2CCC2)n1 [Compound 64] | C (EC1.5>25 μM) | B (Fold Activation<350%) | A (EC1.5<1 μM) | B (Fold Activation<350%)
14 | Cc1cnc(NC(=O)c2cc(N3CCOCC3)nn3cc(-c4cccc(C(F)(F)F)c4)nc23)s1 [Compound 48] | C (EC1.5>25 μM) | B (Fold Activation<350%) | C (EC1.5>25 μM) | B (Fold Activation<350%)
15 | Cc1cnc(C(=O)Nc2ccnc3cc(-c4ccccc4C(F)(F)F)nn23)cn1 [Compound 108] | C (EC1.5>25 μM) | B (Fold Activation<350%) | A (EC1.5<1 μM) | A (Fold activation≧350%)
16 | O=C(Nc1ccnc2cc(-c3ccccc3C(F)(F)F)nn12)c1cccc(OC[C@@H](O)CO)n1 [Compound 115] | A (EC1.5<1 μM) | A (Fold activation≧350%) | A (EC1.5<1 μM) | A (Fold activation≧350%)
17 | Cc1cnc(NC(=O)c2ccnn3cc(-c4ccccc4F)nc23)s1 [Compound 4] | C (EC1.5>25 μM) | B (Fold Activation<350%) | C (EC1.5>25 μM) | B (Fold Activation<350%)
18 | Cc1csc(NC(=O)c2ccnc3cc(-c4cccc(C(F)(F)F)c4)nn23)n1 [Compound 89] | C (EC1.5>25 μM) | B (Fold Activation<350%) | C (EC1.5>25 μM) | B (Fold Activation<350%)
